Values after ≈ are worked out from the molar mass of the structure shown.
Key:
Enterococcus faecalis = assay: Antimicrobial activity against […] ATCC 14506 assessed as growth inhibition after 24 hr by broth dilution assay method; assay type: functional; conditions: ATCC 14506, 24 h
Staphylococcus aureus = assay: Antimicrobial activity against Staphylococcus aureus ATCC 11632 assessed as growth inhibition after 24 hr by broth dilution assay method; assay type: functional; conditions: ATCC 11632, 24 h
[1] = test system: Mycobacterium tuberculosis; assay: Antitubercular activity against Mycobacterium tuberculosis H37Rv assessed as growth inhibition after 21 days by broth dilution assay method; assay type: functional; conditions: 504 h
Aspergillus niger = assay: Antimicrobial activity against Aspergillus niger ATCC 6275 assessed as growth inhibition after 24 hr by broth dilution assay method; assay type: functional; conditions: ATCC 6275, 24 h
Candida tropicalis = assay: Antimicrobial activity against Candida tropicalis ATCC 1369 assessed as growth inhibition after 24 hr by broth dilution assay method; assay type: functional; conditions: ATCC 1369, 24 h
Klebsiella pneumoniae = assay: Antimicrobial activity against Klebsiella pneumoniae ATCC 10031 assessed as growth inhibition after 24 hr by broth dilution assay method; assay type: functional; conditions: ATCC 10031, 24 h
Bacillus subtilis = assay: Antimicrobial activity against Bacillus subtilis ATCC 60511 assessed as growth inhibition after 24 hr by broth dilution assay method; assay type: functional; conditions: ATCC 60511, 24 h
Pseudomonas aeruginosa = assay: Antimicrobial activity against Pseudomonas aeruginosa ATCC 10145 assessed as growth inhibition after 24 hr by broth dilution assay method; assay type: functional; conditions: ATCC 10145, 24 h
Saccharomyces cerevisiae = assay: Antimicrobial activity against Saccharomyces cerevisiae ATCC 9763 assessed as growth inhibition after 24 hr by broth dilution assay method; assay type: functional; conditions: ATCC 9763, 24 h
Escherichia coli = assay: Antimicrobial activity against Escherichia coli ATCC 10536 assessed as growth inhibition after 24 hr by broth dilution assay method; assay type: functional; conditions: ATCC 10536, 24 h
[2] = (§1) Cytotoxicity against Homo sapiens (human) A549 cells assessed as viable cells at 250 uM by MTT assay in presence of fetal bovine serum; assay type: cell-based; conditions: A549 cells, read-out: Activity
A549 = assay: as §1; assay type: cell-based; conditions: a549, 250 µM

Row | Compound | MIC (Enterococcus faecalis) [mg/L] | MIC (Staphylococcus aureus) [mg/L] | MIC [1] [mg/L] | MIC (Aspergillus niger) [mg/L] | MIC (Candida tropicalis) [mg/L] | MIC (Klebsiella pneumoniae) [mg/L] | MIC (Bacillus subtilis) [mg/L] | MIC (Pseudomonas aeruginosa) [mg/L] | MIC (Saccharomyces cerevisiae) [mg/L] | MIC (Escherichia coli) [mg/L] | viability at 250 µM [2] [%] | Activity (A549)
1 | C/C(=N\NC(=O)CSc1nnc(-c2nc(C(C)C)cs2)n1-c1ccccc1)c1ccc(Br)cc1 | 125 (≈ 225 µM) | 16 (≈ 28.8 µM) | 31.2 (≈ 56.3 µM) | 31.2 (≈ 56.3 µM) | 125 (≈ 225 µM) | 31.2 (≈ 56.3 µM) | 62.5 (≈ 113 µM) | 125 (≈ 225 µM) | 31.2 (≈ 56.3 µM) | 62.5 (≈ 113 µM) | – | –
2 | NNC(=O)c1ccncc1 [ISONIAZID] | – | – | 0.25 (≈ 1.82 µM) | – | – | – | – | – | – | – | – | –
3 | C/C(=N\NC(=O)CSc1nnc(-c2nc(C(C)C)cs2)n1-c1ccccc1)c1ccc(Cl)cc1 | 31.2 (≈ 61.1 µM) | 31.2 (≈ 61.1 µM) | 31.2 (≈ 61.1 µM) | 125 (≈ 245 µM) | 31.2 (≈ 61.1 µM) | 62.5 (≈ 122 µM) | 125 (≈ 245 µM) | 31.2 (≈ 61.1 µM) | 31.2 (≈ 61.1 µM) | 16 (≈ 31.3 µM) | – | –
4 | CC(C)c1csc(-c2nnc(SCC(=O)N/N=C/c3ccc(Cl)cc3)n2-c2ccccc2)n1 | 31.2 (≈ 62.9 µM) | 62.5 (≈ 126 µM) | 125 (≈ 251 µM) | 31.2 (≈ 62.9 µM) | 31.2 (≈ 62.9 µM) | 62.5 (≈ 126 µM) | 31.2 (≈ 62.9 µM) | 62.5 (≈ 126 µM) | 16 (≈ 32.2 µM) | 31.2 (≈ 62.9 µM) | – | –
5 | C/C(=N\NC(=O)CSc1nnc(-c2nc(C(C)C)cs2)n1-c1ccccc1)c1ccc(C)cc1 | 62.5 (≈ 127 µM) | 125 (≈ 255 µM) | 62.5 (≈ 127 µM) | 31.2 (≈ 63.7 µM) | 125 (≈ 255 µM) | 16 (≈ 32.6 µM) | 31.2 (≈ 63.7 µM) | 62.5 (≈ 127 µM) | 62.5 (≈ 127 µM) | 125 (≈ 255 µM) | – | –
6 | C/C(=N\NC(=O)CSc1nnc(-c2nc(C(C)C)cs2)n1-c1ccccc1)c1ccc(O)cc1 | 31.2 (≈ 63.4 µM) | 62.5 (≈ 127 µM) | 16 (≈ 32.5 µM) | 8 (≈ 16.2 µM) | 8 (≈ 16.2 µM) | 31.2 (≈ 63.4 µM) | 62.5 (≈ 127 µM) | 16 (≈ 32.5 µM) | 31.2 (≈ 63.4 µM) | 16 (≈ 32.5 µM) | 50 | –
7 | CC(C)c1csc(-c2nnc(SCc3nnc(CCl)o3)n2-c2ccccc2)n1 | 16 (≈ 37 µM) | 8 (≈ 18.5 µM) | – | 31.2 (≈ 72.2 µM) | 125 (≈ 289 µM) | 31.2 (≈ 72.2 µM) | 31.2 (≈ 72.2 µM) | 16 (≈ 37 µM) | 62.5 (≈ 144 µM) | 16 (≈ 37 µM) | – | –
8 | CC(C)c1csc(-c2nnc(SCc3nnc(-c4ccc(O)cc4)o3)n2-c2ccccc2)n1 | 62.5 (≈ 131 µM) | 31.2 (≈ 65.6 µM) | – | 31.2 (≈ 65.6 µM) | 31.2 (≈ 65.6 µM) | 125 (≈ 262 µM) | 31.2 (≈ 65.6 µM) | 31.2 (≈ 65.6 µM) | 31.2 (≈ 65.6 µM) | 62.5 (≈ 131 µM) | – | –
9 | COc1ccc(/C=N/NC(=O)CSc2nnc(-c3nc(C(C)C)cs3)n2-c2ccccc2)cc1OC | 12 (≈ 23 µM) | 8 (≈ 15.3 µM) | 8 (≈ 15.3 µM) | 16 (≈ 30.6 µM) | 31.2 (≈ 59.8 µM) | 16 (≈ 30.6 µM) | 8 (≈ 15.3 µM) | 31.2 (≈ 59.8 µM) | 16 (≈ 30.6 µM) | 16 (≈ 30.6 µM) | – | –
10 | CC(C)c1csc(-c2nnc(SCC(=O)N/N=C/c3ccc(O)cc3)n2-c2ccccc2)n1 | 16 (≈ 33.4 µM) | 125 (≈ 261 µM) | 8 (≈ 16.7 µM) | 31.2 (≈ 65.3 µM) | 62.5 (≈ 131 µM) | 16 (≈ 33.4 µM) | 125 (≈ 261 µM) | 62.5 (≈ 131 µM) | – | 125 (≈ 261 µM) | – | Toxic
11 | O=C(O)c1cn(C2CC2)c2cc(N3CCNCC3)c(F)cc2c1=O [CIPROFLOXACIN] | ≤ 5 | ≤ 5 | – | – | – | ≤ 1 | ≤ 1 | ≤ 5 | – | ≤ 1 | – | –
12 | CC(C)c1csc(-c2nnc(SCC(=O)NN)n2-c2ccccc2)n1 | 31.2 (≈ 83.4 µM) | 16 (≈ 42.7 µM) | 16 (≈ 42.7 µM) | 31.2 (≈ 83.4 µM) | 31.2 (≈ 83.4 µM) | 8 (≈ 21.4 µM) | 31.2 (≈ 83.4 µM) | 8 (≈ 21.4 µM) | 62.5 (≈ 167 µM) | 8 (≈ 21.4 µM) | 50 | –
13 | CC(C)c1csc(-c2nnc(SCC(=O)N/N=C/c3cccc([N+](=O)[O-])c3)n2-c2ccccc2)n1 | 31.2 (≈ 61.6 µM) | 125 (≈ 246 µM) | 62.5 (≈ 123 µM) | 125 (≈ 246 µM) | 31.2 (≈ 61.6 µM) | 16 (≈ 31.5 µM) | 31.2 (≈ 61.6 µM) | 62.5 (≈ 123 µM) | 62.5 (≈ 123 µM) | 31.2 (≈ 61.6 µM) | – | –
14 | COc1ccc(/C(C)=N/NC(=O)CSc2nnc(-c3nc(C(C)C)cs3)n2-c2ccccc2)cc1 | 31.2 (≈ 61.7 µM) | 31.2 (≈ 61.7 µM) | 8 (≈ 15.8 µM) | 125 (≈ 247 µM) | 125 (≈ 247 µM) | 250 (≈ 493 µM) | 62.5 (≈ 123 µM) | 62.5 (≈ 123 µM) | 62.5 (≈ 123 µM) | 125 (≈ 247 µM) | – | –
15 | OC(Cn1cncn1)(Cn1cncn1)c1ccc(F)cc1F [FLUCONAZOLE] | – | – | – | ≤ 1 | ≤ 1 | – | – | – | ≤ 1 | – | – | –
16 | CC(C)c1csc(-c2nnc(SCc3nnc(-c4ccc(Cl)cc4)o3)n2-c2ccccc2)n1 | 8 (≈ 16.2 µM) | 8 (≈ 16.2 µM) | – | 125 (≈ 253 µM) | 125 (≈ 253 µM) | 62.5 (≈ 126 µM) | 4 (≈ 8.08 µM) | 62.5 (≈ 126 µM) | 62.5 (≈ 126 µM) | 62.5 (≈ 126 µM) | 50 | –
17 | CCOC(=O)CSc1nnc(-c2nc(C(C)C)cs2)n1-c1ccccc1 | 125 (≈ 322 µM) | 125 (≈ 322 µM) | 125 (≈ 322 µM) | 62.5 (≈ 161 µM) | 125 (≈ 322 µM) | 125 (≈ 322 µM) | 62.5 (≈ 161 µM) | 62.5 (≈ 161 µM) | 62.5 (≈ 161 µM) | 125 (≈ 322 µM) | – | –
18 | CC(C)c1csc(-c2nnc(SCc3nnc(-c4ccc([N+](=O)[O-])cc4)o3)n2-c2ccccc2)n1 | 31.2 (≈ 61.8 µM) | 31.2 (≈ 61.8 µM) | – | 62.5 (≈ 124 µM) | 31.2 (≈ 61.8 µM) | 31.2 (≈ 61.8 µM) | 62.5 (≈ 124 µM) | 31.2 (≈ 61.8 µM) | 62.5 (≈ 124 µM) | 62.5 (≈ 124 µM) | – | –
19 | Cc1ccc(-c2nnc(CSc3nnc(-c4nc(C(C)C)cs4)n3-c3ccccc3)o2)cc1 | 31.2 (≈ 65.8 µM) | 62.5 (≈ 132 µM) | – | 125 (≈ 263 µM) | 31.2 (≈ 65.8 µM) | 62.5 (≈ 132 µM) | 125 (≈ 263 µM) | 62.5 (≈ 132 µM) | 125 (≈ 263 µM) | 31.2 (≈ 65.8 µM) | – | –
20 | COc1cc(/C=N/NC(=O)CSc2nnc(-c3nc(C(C)C)cs3)n2-c2ccccc2)ccc1O | 125 (≈ 246 µM) | 125 (≈ 246 µM) | 31.2 (≈ 61.4 µM) | 31.2 (≈ 61.4 µM) | 62.5 (≈ 123 µM) | 8 (≈ 15.7 µM) | 16 (≈ 31.5 µM) | 16 (≈ 31.5 µM) | 16 (≈ 31.5 µM) | 8 (≈ 15.7 µM) | – | –
21 | C/C(=N\NC(=O)CSc1nnc(-c2nc(C(C)C)cs2)n1-c1ccccc1)c1ccc([N+](=O)[O-])cc1 | 31.2 (≈ 59.9 µM) | 31.2 (≈ 59.9 µM) | 62.5 (≈ 120 µM) | 125 (≈ 240 µM) | 31.2 (≈ 59.9 µM) | 31.2 (≈ 59.9 µM) | 125 (≈ 240 µM) | 62.5 (≈ 120 µM) | 125 (≈ 240 µM) | 62.5 (≈ 120 µM) | – | –
22 | CCn1cc(C(=O)O)c(=O)c2cc(F)c(N3CCNCC3)cc21 [NORFLOXACIN] | ≤ 5 | ≤ 5 | – | – | – | ≤ 1 | ≤ 1 | ≤ 5 | – | ≤ 1 | – | –
23 | CC(=O)NNC(=O)CSc1nnc(-c2nc(C(C)C)cs2)n1-c1ccccc1 | 125 (≈ 300 µM) | 125 (≈ 300 µM) | 62.5 (≈ 150 µM) | 8 (≈ 19.2 µM) | 8 (≈ 19.2 µM) | 31.2 (≈ 75 µM) | 62.5 (≈ 150 µM) | 125 (≈ 300 µM) | 16 (≈ 38.4 µM) | 62.5 (≈ 150 µM) | – | –
24 | CC(C)c1csc(-c2nnc(SCc3nnc(-c4ccccc4)o3)n2-c2ccccc2)n1 | 31.2 (≈ 67.8 µM) | 31.2 (≈ 67.8 µM) | – | 31.2 (≈ 67.8 µM) | 16 (≈ 34.7 µM) | 62.5 (≈ 136 µM) | 31.2 (≈ 67.8 µM) | 31.2 (≈ 67.8 µM) | 16 (≈ 34.7 µM) | 125 (≈ 271 µM) | – | –
